The numbers were not newly measured in patent US9220759B2, “Treatment of diabetic patients with a drug eluting stent and adjunctive therapy” (Abbott Cardiovascular Systems Inc., priority 2012, dated 2015), which cites them from elsewhere.

This data set relates to restenosis after bare metal stent implantation. The note with it: diabetic patients prescribed the drug, compared to the control group, study of limited size.

As for `CN(CCOc1ccc(CC2SC(=O)NC2=O)cc1)c1ccccn1` (stereo not shown) [rosiglitzone, rosiglitazone], the rate of restenosis entry is reported as “reduction in the rate of restenosis”.
